20 compounds from ChEMBL document CHEMBL3580626, “Scaffold hopping of potential anti-tumor agents by WEGA: a shape-based approach” (Medchemcomm, 2014) can be followed below.

One assay relates to HepG2. Briefly: Cytotoxicity against human HepG2 cells assessed as reduction in cell viability after 48 hrs by CCK8 assay. It is filed as functional, cell-based. As to conditions: HepG2, 48 h. A general note: Tetrazolium dyes change colour on reduction, which living cells bring about.
A short description of assay [1]: Cytotoxicity against human LO2 cells assessed as reduction in cell viability after 48 hrs by CCK8 assay. It is filed as cell-based. The settings on record: L02, 48 h.

Consider `CC(=O)N1c2ccccc2CCc2ccc(N)cc21`, for which the IC50 with HepG2 (read-out: pIC50 (converted)) is more than 158 µM.

Turning to `COC1=Cc2ccccc2N(C(N)=O)c2ccccc21`, the IC50 with HepG2 (read-out: pIC50 (converted)) is more than 158 µM.

Regarding `CC(=O)N1c2ccccc2CCc2ccc(Cl)cc21`, the IC50 in the assay with HepG2 (read-out: pIC50 (converted)) is more than 158 µM.

Take `COC1=Cc2ccccc2Nc2ccccc21`: the IC50 in the assay with HepG2 (read-out: pIC50 (converted)) was 70.8 µM.

On to `CC(CN1c2ccccc2S(=O)(=O)c2ccccc21)N(C)C` (stereo unspecified), for which the IC50 in the assay with HepG2 (read-out: pIC50 (converted)) was more than 158 µM.

`CCN1c2ccccc2CCc2ccc(Cl)cc21`: the IC50 in the assay with HepG2 (read-out: pIC50 (converted)) is more than 158 µM.

With `c1ccc2c(c1)[nH]c1cccc(OCC3CO3)c12` (stereo unspecified), the IC50 was more than 160 µM in assay [1] and 17 µM in the assay with HepG2 (read-out: pIC50 (converted)).

`O=C(Cl)N1c2ccccc2C=Cc2ccccc21`: the IC50 in the assay on HepG2 (read-out: pIC50 (converted)) was 33.9 µM.

For the compound `Oc1cccc2[nH]c3ccccc3c12`, in the assay with HepG2 (read-out: pIC50 (converted)), the IC50 was 123 µM.

As to `c1ccc2c(c1)CCc1ccccc1N2`, the IC50 in the assay on HepG2 (read-out: pIC50 (converted)) is more than 158 µM.

For `NC(=O)N1c2ccccc2C=Cc2ccccc21` [CARBAMAZEPINE], in the assay on HepG2 (read-out: pIC50 (converted)), the IC50 is more than 158 µM.

As for `CC(C(=O)O)c1ccc2c(c1)[nH]c1ccc(Cl)cc12` (stereo unspecified) [CARPROFEN], the IC50 in the assay on HepG2 (read-out: pIC50 (converted)) was 166 µM.

With `COc1ccccc1OCCNCC(O)COc1cccc2[nH]c3ccccc3c12` (stereo unspecified) [CARVEDILOL], the IC50 is 85 µM in assay [1] and 17.4 µM with HepG2 (read-out: pIC50 (converted)).

Consider `CN1CCN(C2=Nc3cc(Cl)ccc3Nc3ccccc32)CC1` [CLOZAPINE], for which the IC50 in the assay on HepG2 (read-out: pIC50 (converted)) is 47.9 µM.

For the compound `OCCN1CCN(CCCN2c3ccccc3Sc3ccc(C(F)(F)F)cc32)CC1` [FLUPHENAZINE], the values for the IC50 (in assay [1]; in the assay on HepG2 (read-out: IC50); in the assay on HepG2 (read-out: pIC50 (converted))) were more than 160 µM, 4.4 µM and 4.37 µM, respectively.

As to `C1=Cc2ccccc2Nc2ccccc21` [IMINOSTILBENE], the IC50 in the assay on HepG2 (read-out: pIC50 (converted)) was more than 158 µM.

With `CC(CN(C)C)CN1c2ccccc2Sc2ccccc21` (stereo unspecified) [METHYLPROMAZINE], the IC50 in the assay with HepG2 (read-out: pIC50 (converted)) was 61.7 µM.

With `NC(=O)N1c2ccccc2CC(=O)c2ccccc21` [OXCARBAZEPINE], the values for the IC50 (in assay [1]; in the assay on HepG2 (read-out: pIC50 (converted))) were more than 160 µM and 19.5 µM, respectively.

With `OCCN1CCN(CCCN2c3ccccc3Sc3ccc(Cl)cc32)CC1` [PERPHENAZINE], the IC50 is more than 160 µM in assay [1] and 16.2 µM in the assay on HepG2 (read-out: pIC50 (converted)).

Take `c1ccc2c(c1)Nc1ccccc1O2` [PHENOXAZINE]: the IC50 in the assay with HepG2 (read-out: pIC50 (converted)) was 204 µM.
